Data as given in US10422079B2, “Method for preserving recycled fiber by using biocides in paper manufacturing and method for manufacturing paper using recycled fibers” (ECOLAB USA INC., priority 2014, dated 2019).

System: pulp contaminated by the microbes (bacteria)
Experiment: Starch degradation in microbe-inoculated recycled-fiber (AOCC) pulp treated with biocides, 5 days (Example 4)
Format: cell-based
Conditions: total chlorine 20 ppm, added once a day, combinations 10 ppm + 10 ppm
Protocol: 150 g standard American Old Corrugated Containers (sometimes called as AOCC) were weighted. The total starch content of the recycled American Old Corrugated Containers was detected according to the same starch measuring method of example 2, and the result was 9.1%.
In the pulping and papermaking process, the above waste paper was cut into pieces and immersed into 15 kilograms water overnight. The obtained sample was disintegrated by Valley Beater for 30 minutes and pulped for 20 minutes, and the pulp concentration thereof is about 1%.
The above obtained pulp was inoculated by the pulp which was contaminated by bacteria in the ratio of one to thousand, followed by cultivating for 3 hours at 37° C. The simulation pulp contaminated by the microbes was obtained to use for the following experiment. The pH, oxidation-reduction potential (ORP), concentration of adenosine triphosphate (ATP) and total number of aerobic bacteria colonies of the pulp which was contaminated initially by the microbes were detected. […]
The above substances were added into the pulps once a day and the concentrations of the total chlorine were maintained at 20 ppm by controlling the addition doses. The whole experiment was conducted for 5 days and the total starches contents were monitored.

Molecule `OCl` [sodium hypochlorite] has a starch degradation rate of 5%.
